One block for each compound: values may come before it.
Assay: solvent given as SMILES

fluorescence lifetime (in CCCCCCCCO): 0.48 ns
fluorescence lifetime (in CCCO): 0.18 ns
fluorescence lifetime (in CCO): 0.11 ns
fluorescence lifetime (in CO): 0.09 ns
fluorescence lifetime (in ClC(Cl)Cl): 0.46 ns
fluorescence lifetime (in ClCCl): 0.31 ns
SMILES: CN(C)c1ccc(/C=C/c2cc[n+](CCCOCC(COCCC[n+]3ccc(/C=C/c4ccc(N(C)C)cc4)cc3)(COCCC[n+]3ccc(/C=C/c4ccc(N(C)C)cc4)cc3)COCCC[n+]3ccc(/C=C/c4ccc(N(C)C)cc4)cc3)cc2)cc1

SMILES: CCN1C(=O)C(C2C(=O)c3c4ccccc4cc4cc5ccccc5c2c34)C(=O)N(CC)C1=S (stereo not drawn)
fluorescence lifetime (in C1CCOC1): 11.1 ns
fluorescence lifetime (in CCCCCC): 13.1 ns
fluorescence lifetime (in Cc1ccccc1): 12.4 ns
fluorescence lifetime (in ClCCl): 10.5 ns

fluorescence lifetime (in C1COCCO1): 0.45 ns
fluorescence lifetime (in CC#N): 0.49 ns
fluorescence lifetime (in CO): 0.6 ns
fluorescence lifetime (in O): 1.04 ns
SMILES: O=c1[nH]c(=O)n([C@@H]2O[C@H](CO)[C@@H](O)[C@H]2O)cc1-c1cc2ccccc2s1

SMILES: F[B-]1(F)OC(c2ccccc2)=Cc2cc(Cl)nc[n+]21
fluorescence lifetime (in Cc1ccccc1): 0.19 ns

fluorescence lifetime (in C1CCOC1): 14.7 ns
fluorescence lifetime (in CC#N): 7.9 ns
fluorescence lifetime (in CCCCCC): 21.2 ns
SMILES: COCCN1C(=O)/C(=C/c2cccc(N(C)C)c2)N=C1C

SMILES: COc1cc2c(cc1/C=C/C1=CC(=C(C#N)C#N)CC(C)(C)C1)c1ccccc1n2C
fluorescence lifetime (in C1CCOC1): 6.48 ns
fluorescence lifetime (in CC#N): 10.4 ns
fluorescence lifetime (in CCO): 7.78 ns
fluorescence lifetime (in CCOC(C)=O): 6.38 ns
fluorescence lifetime (in CN(C)C=O): 9.14 ns
fluorescence lifetime (in CS(C)=O): 8.27 ns
fluorescence lifetime (in Cc1ccccc1): 8.3 ns
fluorescence lifetime (in ClC(Cl)Cl): 9.43 ns
fluorescence lifetime (in ClCCl): 6.7 ns

fluorescence lifetime (in C1CCCCC1): 6.5 ns
fluorescence lifetime (in ClCCl): 4 ns
SMILES: CC(C)[Si]1(C(C)C)c2ccccc2-c2ccc(N(C)C)cc21

SMILES: CC(C)(C)c1ccc2c(c1)c1cc(C(C)(C)C)ccc1n2-c1ccc(C#Cc2cccc(C#Cc3ccc(-n4c5ccc(C(C)(C)C)cc5c5cc(C(C)(C)C)ccc54)cc3)c2)cc1
fluorescence lifetime (in CC#N): 5.51 ns
fluorescence lifetime (in CCCCC): 1.38 ns
fluorescence lifetime (in CO): 4.88 ns
fluorescence lifetime (in Cc1ccccc1): 1.65 ns
fluorescence lifetime (in ClC(Cl)Cl): 2.51 ns
fluorescence lifetime (in ClCCl): 3.62 ns

fluorescence lifetime (in CC#N): 111 ns
SMILES: O=CC12N=N[C@](C=O)(C3C4CCC(C4)C31)C1[C@@H]3CC[C@@H](C3)[C@H]12 (stereo partly drawn)

fluorescence lifetime (in ClCCl): 7.1 ns
SMILES: COc1ccc(-c2c3ccccc3c(C#Cc3ccccc3)c3cc4cc(C)sc4cc23)cc1

fluorescence lifetime (in C1COCCO1): 1.05 ns
SMILES: c1ccc(-c2ccc(-c3ccc(-c4cc(-c5ccc(-c6ccc(-c7ccccc7)cc6)cc5)cc(-c5ccc(-c6ccc(-c7ccccc7)cc6)cc5)c4)cc3)cc2)cc1

SMILES: Nc1ccc2c(c1)C(=O)N(C13C[C@H]4C[C@@H](C1)C[C@@H](C3)C4)C2=O
fluorescence lifetime (in C1CCCCC1): 10.7 ns
fluorescence lifetime (in C1CCOC1): 18.2 ns
fluorescence lifetime (in CC#N): 19 ns
fluorescence lifetime (in CCOC(C)=O): 17 ns
fluorescence lifetime (in CO): 9.49 ns
fluorescence lifetime (in CS(C)=O): 22.4 ns
fluorescence lifetime (in Cc1ccccc1): 17.3 ns
fluorescence lifetime (in ClCCl): 24.6 ns

fluorescence lifetime (in O): 3.1 ns
SMILES: O=C(O)c1cccc2c(=O)c3ccccc3[nH]c12

fluorescence lifetime (in ClCCl): 6.3 ns
SMILES: CCc1c(C)[nH]c(C2=[N+]3C(=Cc4c(C)c(CC)c(C)n4[B-]3(F)F)c3ccccc32)c1C

SMILES: COc1ccc(C2=C(c3ccc(OC)cc3)C(c3ccccc3)=[N+]3C2=Nc2c(-c4ccc(OC)cc4)c(-c4ccc(OC)cc4)c(-c4ccccc4)n2[B-]3(F)F)cc1
fluorescence lifetime (in Cc1ccccc1): 0.08 ns

SMILES: CCOc1cc2c(cc1/C=C/C1=CC(=C(C#N)C#N)CC(C)(C)C1)c1ccccc1n2CC
fluorescence lifetime (in C1CCOC1): 4.47 ns
fluorescence lifetime (in CC#N): 3.81 ns
fluorescence lifetime (in CCO): 4.28 ns
fluorescence lifetime (in CCOC(C)=O): 7.08 ns
fluorescence lifetime (in CN(C)C=O): 4.01 ns
fluorescence lifetime (in CS(C)=O): 4.94 ns
fluorescence lifetime (in Cc1ccccc1): 3.84 ns
fluorescence lifetime (in ClC(Cl)Cl): 4.37 ns
fluorescence lifetime (in ClCCl): 6.24 ns

SMILES: Cc1cc(-n2c3ccccc3c3cc4c(cc32)C2c3ccccc3C4c3ccccc32)c(C)cc1-c1nc(-c2ccccc2)nc(-c2ccccc2)n1
fluorescence lifetime (in O=P(c1ccccc1)(c1ccccc1)c1ccccc1Oc1ccccc1P(=O)(c1ccccc1)c1ccccc1): 10.5 ns

fluorescence lifetime (in CC#N): 8.14 ns
SMILES: Oc1ccc2cc(C3(O)C4CC5CC(C4)CC3C5)ccc2c1 (stereo not drawn)

fluorescence lifetime (in ClC(Cl)Cl): 2.68 ns
SMILES: CN(C)c1ccc(C2=Cc3cccc[n+]3[B-](F)(F)O2)cc1

SMILES: CN(C)c1ccc(-c2nc3c(c4c2-c2ccc(C#N)cc2CC4)-c2ccc(C#N)cc2CC3)cc1
fluorescence lifetime (in C1CCOC1): 2.93 ns
fluorescence lifetime (in CC#N): 3.56 ns
fluorescence lifetime (in CCCCCC): 0.6 ns
fluorescence lifetime (in CCOC(C)=O): 2.55 ns
fluorescence lifetime (in CO): 1.13 ns
fluorescence lifetime (in CS(C)=O): 1.79 ns
fluorescence lifetime (in Cc1ccccc1): 1.4 ns
fluorescence lifetime (in ClCCl): 1.68 ns

fluorescence lifetime (in C1CCOC1): 5.43 ns
SMILES: CC1=[N+]2C(=C(c3ccccc3)c3ccc(/C=C/c4ccc(C(=C(c5ccccc5)c5ccccc5)c5ccccc5)cc4)n3[B-]2(F)F)C=C1

fluorescence lifetime (in C1CCCCC1): 17.7 ns
SMILES: COc1ccc(-c2ccc(OC)cc2)cc1

SMILES: COc1ccc(-c2cc(-c3ccc(C)cc3)nc3c(C#N)c(N4CCCC4)nc(N)c23)cc1
fluorescence lifetime (in CC#N): 11.7 ns
fluorescence lifetime (in CC(C)=O): 11.3 ns
fluorescence lifetime (in CC(C)O): 11.7 ns
fluorescence lifetime (in CO): 10.3 ns
fluorescence lifetime (in ClC(Cl)Cl): 13.1 ns
fluorescence lifetime (in ClCCl): 13.3 ns
fluorescence lifetime (in c1ccccc1): 12 ns

Reference: the Deep4Chem optical property database
